Laboratory results published in PubChem BioAssay AID1963852 (Molecular Pharmacology Branch, DTP, NCI, 2024).

Tested on: 282377-053-R-J1-PDC complex spheroid viability
Test: Anticancer human tumor 282377-053-R-J1-PDC patient-derived colon adenocarcinoma cell line growth inhibition [POLQ]
Details: for IC50: curve of first compound; for viability, T/C: stronger effect = lower value
How it was run: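 Growth inhibition in 3D: complex spheroids (tumor PDC, HUVEC, MSC) treated with POLQ inhibitor combinations; where Cmax unknown, highest tested concentration 10 microM, except SN-38 at 1 microM.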

[1] = second compound 0.0316 µM, first compound 0.0316 µM
[2] = second compound 0.0316 µM, first compound 0.1 µM
[3] = second compound 0.0316 µM, first compound 0.316 µM
[4] = second compound 0.0316 µM, first compound 1 µM
[5] = second compound 0.0316 µM, first compound 3.16 µM
[6] = second compound 0.0316 µM, first compound 10 µM
[7] = second compound 0.1 µM, first compound 0.0316 µM
[8] = second compound 0.1 µM, first compound 0.1 µM
[9] = second compound 0.1 µM, first compound 0.316 µM
[10] = second compound 0.1 µM, first compound 1 µM
[11] = second compound 0.1 µM, first compound 3.16 µM
[12] = second compound 0.1 µM, first compound 10 µM
[13] = second compound 0.316 µM, first compound 0.0316 µM
[14] = second compound 0.316 µM, first compound 0.1 µM
[15] = second compound 0.316 µM, first compound 0.316 µM
[16] = second compound 0.316 µM, first compound 1 µM
[17] = second compound 0.316 µM, first compound 3.16 µM
[18] = second compound 0.316 µM, first compound 10 µM
[19] = second compound 1 µM, first compound 0.0316 µM
[20] = second compound 1 µM, first compound 0.1 µM
[21] = second compound 1 µM, first compound 0.316 µM
[22] = second compound 1 µM, first compound 1 µM
[23] = second compound 1 µM, first compound 3.16 µM
[24] = second compound 1 µM, first compound 10 µM
[25] = second compound 3.16 µM, first compound 0.0316 µM
[26] = second compound 3.16 µM, first compound 0.1 µM
[27] = second compound 3.16 µM, first compound 0.316 µM
[28] = second compound 3.16 µM, first compound 1 µM
[29] = second compound 3.16 µM, first compound 3.16 µM
[30] = second compound 3.16 µM, first compound 10 µM
[31] = second compound 10 µM, first compound 0.0316 µM
[32] = second compound 10 µM, first compound 0.1 µM
[33] = second compound 10 µM, first compound 0.316 µM
[34] = second compound 10 µM, first compound 1 µM
[35] = second compound 10 µM, first compound 3.16 µM
[36] = second compound 10 µM, first compound 10 µM
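Note: spheroids exposed to compounds for seven days.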
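Throughout, for viability, T/C: 100% = DMSO vehicle control viability.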

COc1cccc2c1C(=O)c1c(O)c3c(c(O)c1C2=O)CC(O)(C(=O)CO)CC3OC1CC(N)C(O)C(C)O1 (stereo unspecified) + COC1C(OC(N)=O)C(O)C(Oc2ccc3c(O)c(NC(=O)c4ccc(O)c(CC=C(C)C)c4)c(=O)oc3c2C)OC1(C)C
IC50 (second compound 0.0316 µM): 0.273 µM
IC50 (second compound 0.1 µM): 0.323 µM
IC50 (second compound 0.316 µM): 0.284 µM
IC50 (second compound 1 µM): 0.386 µM
IC50 (second compound 3.16 µM): 0.289 µM
IC50 (second compound 10 µM): 0.378 µM
viability, T/C [1]: 92.3%
viability, T/C [2]: 81%
viability, T/C [3]: 43.9%
viability, T/C [4]: 17.5%
viability, T/C [5]: 1.11%
viability, T/C [6]: 2.81%
viability, T/C [7]: 117%
viability, T/C [8]: 82.7%
viability, T/C [9]: 57.6%
viability, T/C [10]: 16.5%
viability, T/C [11]: 0.71%
viability, T/C [12]: 2.97%
viability, T/C [13]: 95.5%
viability, T/C [14]: 84.9%
viability, T/C [15]: 44.9%
viability, T/C [16]: 16.1%
viability, T/C [17]: 0.67%
viability, T/C [18]: 2.69%
viability, T/C [19]: 97.1%
viability, T/C [20]: 88.6%
viability, T/C [21]: 58%
viability, T/C [22]: 14.3%
viability, T/C [23]: 1.36%
viability, T/C [24]: 2.91%
viability, T/C [25]: 90.2%
viability, T/C [26]: 88.9%
viability, T/C [27]: 44.8%
viability, T/C [28]: 13.7%
viability, T/C [29]: 0.83%
viability, T/C [30]: 2.03%
viability, T/C [31]: 84.4%
viability, T/C [32]: 76.8%
viability, T/C [33]: 56.8%
viability, T/C [34]: 16.3%
viability, T/C [35]: 2.09%
viability, T/C [36]: 3.61%

Nc1ccn(C2OC(CO)C(O)C2(F)F)c(=O)n1 (stereo unspecified) + COC1C(OC(N)=O)C(O)C(Oc2ccc3c(O)c(NC(=O)c4ccc(O)c(CC=C(C)C)c4)c(=O)oc3c2C)OC1(C)C
IC50 (second compound 0.0316 µM): 0.0837 µM
IC50 (second compound 0.1 µM): 0.138 µM
IC50 (second compound 0.316 µM): 0.123 µM
IC50 (second compound 1 µM): 0.114 µM
IC50 (second compound 3.16 µM): 0.0909 µM
IC50 (second compound 10 µM): 0.0956 µM
viability, T/C [1]: 80.7%
viability, T/C [2]: 41.5%
viability, T/C [3]: 28.9%
viability, T/C [4]: 27.2%
viability, T/C [5]: 22.7%
viability, T/C [6]: 11.6%
viability, T/C [7]: 79.7%
viability, T/C [8]: 60.3%
viability, T/C [9]: 23%
viability, T/C [10]: 26%
viability, T/C [11]: 20.7%
viability, T/C [12]: 13.5%
viability, T/C [13]: 107%
viability, T/C [14]: 51.5%
viability, T/C [15]: 32.5%
viability, T/C [16]: 27.8%
viability, T/C [17]: 21.1%
viability, T/C [18]: 12.5%
viability, T/C [19]: 93%
viability, T/C [20]: 48%
viability, T/C [21]: 32%
viability, T/C [22]: 33.3%
viability, T/C [23]: 21.8%
viability, T/C [24]: 10.6%
viability, T/C [25]: 76.5%
viability, T/C [26]: 47.1%
viability, T/C [27]: 27.9%
viability, T/C [28]: 27.8%
viability, T/C [29]: 21.3%
viability, T/C [30]: 11.1%
viability, T/C [31]: 90.2%
viability, T/C [32]: 47.2%
viability, T/C [33]: 28.1%
viability, T/C [34]: 32.7%
viability, T/C [35]: 24%
viability, T/C [36]: 13.8%

O=C(c1cc(Cc2n[nH]c(=O)c3ccccc23)ccc1F)N1CCN(C(=O)C2CC2)CC1 + COC1C(OC(N)=O)C(O)C(Oc2ccc3c(O)c(NC(=O)c4ccc(O)c(CC=C(C)C)c4)c(=O)oc3c2C)OC1(C)C
IC50 (second compound 0.0316 µM): > 10 µM
IC50 (second compound 0.1 µM): > 10 µM
IC50 (second compound 0.316 µM): > 10 µM
IC50 (second compound 1 µM): > 10 µM
IC50 (second compound 3.16 µM): > 10 µM
IC50 (second compound 10 µM): > 10 µM
viability, T/C [1]: 128%
viability, T/C [2]: 97.7%
viability, T/C [3]: 105%
viability, T/C [4]: 106%
viability, T/C [5]: 79.1%
viability, T/C [6]: 103%
viability, T/C [7]: 109%
viability, T/C [8]: 120%
viability, T/C [9]: 90.5%
viability, T/C [10]: 87.8%
viability, T/C [11]: 105%
viability, T/C [12]: 101%
viability, T/C [13]: 107%
viability, T/C [14]: 90.1%
viability, T/C [15]: 99.1%
viability, T/C [16]: 97.7%
viability, T/C [17]: 117%
viability, T/C [18]: 98%
viability, T/C [19]: 116%
viability, T/C [20]: 94.7%
viability, T/C [21]: 103%
viability, T/C [22]: 119%
viability, T/C [23]: 106%
viability, T/C [24]: 96%
viability, T/C [25]: 98.8%
viability, T/C [26]: 108%
viability, T/C [27]: 113%
viability, T/C [28]: 103%
viability, T/C [29]: 107%
viability, T/C [30]: 98.8%
viability, T/C [31]: 94%
viability, T/C [32]: 99.4%
viability, T/C [33]: 102%
viability, T/C [34]: 110%
viability, T/C [35]: 96%
viability, T/C [36]: 80.8%
